For series [1], the target named is T1, Clostridium stercorarium DNA polymerase, N-terminal His6 tag (Cst-His), SEQ ID NO:14 (Thermoclostridium stercorarium, UniProt L7VMI6).
T1 sequence (L7VMI6 with tags, fused parts or gaps): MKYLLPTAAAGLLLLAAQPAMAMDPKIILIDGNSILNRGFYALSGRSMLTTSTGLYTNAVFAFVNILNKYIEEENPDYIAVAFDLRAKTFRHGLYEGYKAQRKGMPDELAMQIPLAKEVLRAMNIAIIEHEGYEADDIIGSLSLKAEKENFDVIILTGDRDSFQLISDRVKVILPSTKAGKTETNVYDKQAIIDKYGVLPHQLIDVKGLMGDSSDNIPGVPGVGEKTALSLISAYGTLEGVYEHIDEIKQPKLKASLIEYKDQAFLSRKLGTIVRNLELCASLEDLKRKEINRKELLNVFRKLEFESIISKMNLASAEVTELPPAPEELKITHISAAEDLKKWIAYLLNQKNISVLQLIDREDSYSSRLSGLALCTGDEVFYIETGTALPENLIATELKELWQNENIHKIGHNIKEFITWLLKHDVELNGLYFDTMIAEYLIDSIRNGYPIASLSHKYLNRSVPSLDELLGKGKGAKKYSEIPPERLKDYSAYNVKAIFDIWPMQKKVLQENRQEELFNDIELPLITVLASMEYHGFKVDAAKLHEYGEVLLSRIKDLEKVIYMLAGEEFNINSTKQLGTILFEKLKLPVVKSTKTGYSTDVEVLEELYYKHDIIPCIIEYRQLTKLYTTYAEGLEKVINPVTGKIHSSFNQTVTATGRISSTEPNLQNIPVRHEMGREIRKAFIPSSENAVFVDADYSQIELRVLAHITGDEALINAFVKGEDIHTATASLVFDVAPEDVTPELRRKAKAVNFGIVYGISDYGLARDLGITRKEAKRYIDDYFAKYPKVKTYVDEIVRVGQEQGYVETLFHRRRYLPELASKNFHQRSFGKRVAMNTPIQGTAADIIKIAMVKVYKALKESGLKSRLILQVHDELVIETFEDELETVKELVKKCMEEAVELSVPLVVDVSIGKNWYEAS
Description: Steady-state kinetics, DNA- and RNA-dependent polymerase activity. The settings on record: Table 34, DNA template, 2 mM MgCl2, 45 °C per footnote. The source says:
(§1) Subcloning of genes for Cst and Cth DNA polymerases. In order to improve expression and simplify purification of Cst and Cth DNA polymerase, the genes were subcloned downstream of a T7 promoter and an amino-terminal His6 tag sequence was introduced using Gateway cloning technology (Invitrogen Corporation, Carlsbad, Calif.). The sequence of the DNA oligonucleotide used at the 5′ end of the Cst gene was: 5′-[…] ATAGAC 3′ (SEQ ID NO:37). The sequence of the DNA oligonucleotide used at the 5′ end of the Cth gene was: 5′-[…] […]-3′ (SEQ ID NO:38). The sequence of the DNA oligonucleotide used at the 3′ end of each gene was the same: 5′-[…] […] 3′ (SEQ ID NO:39). Purified pET26B plasmid DNA (Novagen Inc., Madison, Wis.) bearing the gene for Cst or Cth DNA polymerase was amplified by PCR utilizing the primers listed above and Platinum Taq HiFi DNA polymerase (Invitrogen Corporation, Carlsbad, Calif.). PCR products purified by agarose gel electrophoresis were cloned into Gateway vector pDON21 and transferred by recombination into vector pDEST17. […] Each final recombinant plasmid was transformed into the E. coli expression host BL21-AI (Invitrogen Corporation, Carlsbad, Calif.).
(§2) Purification of Cst-His and Cth-His DNA polymerases. E. coli cells (BL21AI) bearing the plasmid pDEST17 with the gene for Cst-His or Cth-His DNA polymerase were grown in 2.8-1 Fembach flasks in LB broth containing 50 μg/ml ampicillin at 37° C. After the culture reached an A590 of 1.0, expression of DNA polymerase was induced by the addition of 0.2% arabinose for 3 hr. Cells were harvested by centrifugation and stored at −70° C.
(§3) Steady-state kinetic measurements.
(§4) The assays were conducted in the presence of 1.5 mM MgCl2 at 55° C. for all enzymes except the Caldibacillus cellulovorans CompA.2 enzyme where 2 mM MgCl2 and 45° C. were used.

In series [2] the target is T2, Clostridium thermosulfurogenes DNA polymerase, N-terminal His6 tag (Cth-His), SEQ ID NO:15 (Thermoanaerobacterium thermosulfurigenes, UniProt Q6X9R5).
T2 sequence (Q6X9R5 with tags, fused parts or gaps): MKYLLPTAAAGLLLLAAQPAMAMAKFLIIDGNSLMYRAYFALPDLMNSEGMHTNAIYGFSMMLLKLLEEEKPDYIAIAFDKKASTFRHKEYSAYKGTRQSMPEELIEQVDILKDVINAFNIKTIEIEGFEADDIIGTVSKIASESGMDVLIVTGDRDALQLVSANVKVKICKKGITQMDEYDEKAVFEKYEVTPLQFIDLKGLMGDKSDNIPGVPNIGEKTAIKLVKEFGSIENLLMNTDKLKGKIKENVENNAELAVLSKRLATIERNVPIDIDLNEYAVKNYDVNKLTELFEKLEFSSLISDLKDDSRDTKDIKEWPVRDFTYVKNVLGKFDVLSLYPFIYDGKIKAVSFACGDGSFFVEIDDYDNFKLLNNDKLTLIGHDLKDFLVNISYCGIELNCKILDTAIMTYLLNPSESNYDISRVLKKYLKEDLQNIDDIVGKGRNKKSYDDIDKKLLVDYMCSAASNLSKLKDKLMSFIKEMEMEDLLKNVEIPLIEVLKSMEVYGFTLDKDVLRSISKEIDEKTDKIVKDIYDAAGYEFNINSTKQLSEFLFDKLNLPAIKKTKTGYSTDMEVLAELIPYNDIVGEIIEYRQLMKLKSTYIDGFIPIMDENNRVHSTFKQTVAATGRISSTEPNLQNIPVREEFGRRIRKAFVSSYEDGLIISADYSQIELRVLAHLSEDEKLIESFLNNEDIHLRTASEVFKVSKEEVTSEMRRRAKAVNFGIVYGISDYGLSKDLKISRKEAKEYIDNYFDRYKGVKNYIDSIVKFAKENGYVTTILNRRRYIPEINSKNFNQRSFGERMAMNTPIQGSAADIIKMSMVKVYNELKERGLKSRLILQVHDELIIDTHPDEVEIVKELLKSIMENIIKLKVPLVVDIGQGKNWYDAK
Described as above. The note with it: Table 34, DNA template, 2 mM MgCl2, 45 °C per footnote.
Text: as §1, §2, §3, §4

Series [3] addresses SuperScript II reverse transcriptase (SSII, SS II RT), a modified M-MLV reverse transcriptase (Moloney murine leukemia virus isolate Shinnick, UniProt P03355). Described as above. In kind it is biochemical. How it is done:
(§5) Thermotoga neapolitana (Tne) DNA polymerase mutated to eliminate 3′ to 5′ and 5′ to 3′ exonuclease activity was cloned, engineered and purified as described in U.S. Pat. No. 6,306,588. SuperScript II reverse transcriptase (SS II RT) was from Invitrogen Corporation, Carlsbad, Calif.
as §3
(§6) The catalytic rate constant kcat and the Michaelis constant KM were determined for both the DNA-dependent and RNA-dependent polymerase activities for the polypeptides of the invention and these parameters were compared to those of Tne DNA polymerase enzyme and […]™ II reverse transcriptase. […]

For series [4], the target named is T3, Thermotoga neapolitana (Tne) DNA polymerase, mutated to eliminate 3′ to 5′ and 5′ to 3′ exonuclease activity (Thermotoga neapolitana, UniProt B9K7T2).
T3 construct: mutated to eliminate 3'-5' and 5'-3' exonuclease activity as in US 6,306,588 (recalled, unsure: D137A and D323A)
T3 sequence (B9K7T2 entry or part of it, stated change not applied): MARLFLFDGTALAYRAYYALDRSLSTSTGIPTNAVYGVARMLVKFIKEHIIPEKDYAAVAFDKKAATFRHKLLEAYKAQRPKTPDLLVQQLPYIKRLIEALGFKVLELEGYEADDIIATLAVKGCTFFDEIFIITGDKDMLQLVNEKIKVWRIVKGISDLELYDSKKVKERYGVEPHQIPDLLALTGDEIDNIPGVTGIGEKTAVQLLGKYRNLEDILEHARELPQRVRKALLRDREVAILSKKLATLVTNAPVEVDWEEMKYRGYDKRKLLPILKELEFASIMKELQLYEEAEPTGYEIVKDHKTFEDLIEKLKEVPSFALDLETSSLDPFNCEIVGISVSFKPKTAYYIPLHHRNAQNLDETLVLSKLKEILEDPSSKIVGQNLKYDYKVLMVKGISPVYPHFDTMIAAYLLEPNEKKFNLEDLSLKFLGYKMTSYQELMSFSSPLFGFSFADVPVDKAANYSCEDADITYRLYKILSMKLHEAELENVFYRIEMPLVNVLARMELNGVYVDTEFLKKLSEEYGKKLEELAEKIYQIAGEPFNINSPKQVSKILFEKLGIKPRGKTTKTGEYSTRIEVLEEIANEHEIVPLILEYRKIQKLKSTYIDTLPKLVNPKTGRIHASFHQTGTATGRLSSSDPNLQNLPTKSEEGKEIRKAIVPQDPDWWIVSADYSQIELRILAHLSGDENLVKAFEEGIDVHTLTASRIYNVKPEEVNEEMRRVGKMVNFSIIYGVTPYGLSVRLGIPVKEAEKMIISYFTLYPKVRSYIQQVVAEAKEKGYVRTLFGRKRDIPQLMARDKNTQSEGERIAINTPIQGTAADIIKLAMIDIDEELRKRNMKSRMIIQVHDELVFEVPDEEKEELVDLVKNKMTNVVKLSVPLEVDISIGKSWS
Described as above. It counts as biochemical. Here is the method: as §5, §3, §6

Substrate in series [5]: Cc1cn([C@H]2C[C@H](O)[C@@H](COP(=O)(O)OP(=O)(O)OP(=O)(O)O)O2)c(=O)[nH]c1=O
Nature of the series: purified protein, by the assay type. The note with it: 55 °C, mean ± SD.

The mark [6] stands for this setting: Table 34, DNA template, 2 mM MgCl2, 45 °C per footnote.
[7] abbreviates: read-out: Km DNA (dGTP), Table 34, DNA template, 2 mM MgCl2, 45 °C per footnote.
[8] abbreviates: other: Table 40, (dA)270•(dT)40, dTTP.
The mark [9] stands for this setting: other: Table 40, (rA)250•(dT)30, dTTP.

Regarding `Nc1nc2c(ncn2[C@H]2C[C@H](O)[C@@H](COP(=O)(O)OP(=O)(O)OP(=O)(O)O)O2)c(=O)[nH]1` [dGTP], the “Kcat DNA (dGTP)” value in series [1] stood at 11.5 s⁻¹; in series [2] it was 57 s⁻¹; in series [3] (setting [6]) it was 15.4 s⁻¹; in series [4] (setting [6]) it was 17.5 s⁻¹. For the same molecule, the Km in series [1] (read-out: Km DNA (dGTP)) worked out at 0.5 µM; in series [2] (read-out: Km DNA (dGTP)), 17.1 µM; in series [3] (setting [7]), 2.4 µM; in series [4] (setting [7]) it was 17.2 µM. For the same molecule, the “kCAT DNA-DNA” value in series [3] (Table 40, (dC)n•(dG)35, dGTP, 37 °C, mean ± SD) turned out to be 16 ± 2 s⁻¹; in series [4] (Table 40, (dC)n•(dG)35, dGTP, 72 °C, mean ± SD), 130 ± 32 s⁻¹.

B1: Clostridium stercorarium DNA polymerase, N-terminal His6 tag (Cst-His), SEQ ID NO:14 (Thermoclostridium stercorarium subsp. stercorarium DSM 8532) (protein)
chain: T1 sequence (L7VMI6 with tags, fused parts or gaps)
B1: the kcat stood at 40 ± 13 s⁻¹ in series [5] (setting [8]) and 88 ± 5 s⁻¹ in series [5] (setting [9]).

B2: Clostridium thermosulfurogenes DNA polymerase, N-terminal His6 tag (Cth-His), SEQ ID NO:15 (Thermoanaerobacterium thermosulfurigenes) (protein)
chain: T2 sequence (Q6X9R5 with tags, fused parts or gaps)
As to B2, the results for the catalytic constant (kcat) in series [5] (setting [8]) and in series [5] (setting [9]) were 28 ± 1 s⁻¹ and 16 ± 1 s⁻¹, respectively.
